Assay results from patent US11174223B2, “Compositions, methods, and systems for the synthesis and use of imaging agents” (Lantheus Medical Imaging, Inc., priority 2010, dated 2021).
Structures can show the parent of a compound that is named as a salt. Each block holds one compound with its values, some of them ahead of it.

Legend:
[1] = Hygroscopicity of salt forms of imaging agent precursor-1; format: physicochemical; settings: salt form of imaging agent precursor-1
Text: (§1) Selected physical properties of the salts of Examples 5-6 and 8-12, determined using established characterization methods, are tabulated below (Table 1).

[2] = Thermal stability of salt forms; format: physicochemical; settings: salt form of imaging agent precursor-1
Text: as §1

[3] = target: T1, NET (Rattus norvegicus, UniProt Q63380); assay: Cell uptake selectivity with and without desipramine in PC-12 cells; format: cell-based
T1 construct: endogenous in cells; host or cells: PC-12
T1 sequence (Q63380 1-617): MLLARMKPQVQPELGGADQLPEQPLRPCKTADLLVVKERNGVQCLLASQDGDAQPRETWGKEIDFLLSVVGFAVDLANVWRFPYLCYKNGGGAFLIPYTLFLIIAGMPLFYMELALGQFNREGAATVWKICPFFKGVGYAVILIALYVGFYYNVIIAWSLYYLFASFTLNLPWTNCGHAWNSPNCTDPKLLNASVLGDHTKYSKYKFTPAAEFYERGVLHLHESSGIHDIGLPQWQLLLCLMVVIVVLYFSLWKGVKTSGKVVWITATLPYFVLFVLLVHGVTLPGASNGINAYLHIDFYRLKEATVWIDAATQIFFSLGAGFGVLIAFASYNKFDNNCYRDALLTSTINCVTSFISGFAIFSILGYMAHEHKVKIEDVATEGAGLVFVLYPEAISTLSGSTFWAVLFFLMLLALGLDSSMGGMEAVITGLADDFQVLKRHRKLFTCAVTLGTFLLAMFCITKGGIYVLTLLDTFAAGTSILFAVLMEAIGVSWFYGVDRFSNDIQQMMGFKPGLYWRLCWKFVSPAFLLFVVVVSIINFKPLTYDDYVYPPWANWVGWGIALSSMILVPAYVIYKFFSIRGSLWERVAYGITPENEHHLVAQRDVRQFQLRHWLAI
Description: (§2) The affinity (Ki) was determined in a competition binding assay by incubating ^19F-imaging agent-1, a cold analog of imaging agent-1, or NE with ^3H-desmethylimipramine in cell membrane overexpressing human NET. The uptake selectivity was assessed by measuring imaging agent-1 or ^3H-NE cell uptake with and without pretreatment of desipramine, a selective NET inhibitor, in SK—N—SH (human neuroblastoma) and PC-12 (rat pheochromocytoma) cells. In SK—NSH cells, the uptake kinetics (Km and Vmax) were evaluated by measuring NET mediated uptake of imaging agent-1 or NE at various concentrations. Imaging agent-1 cardiac image quality was evaluated by PET imaging (˜1.5 mCi, i.v.) in rabbits in the presence and absence of desipramine (1 mg/kg).

[4] = target: T2, NET (Homo sapiens, UniProt P23975); assay: Cell uptake selectivity with and without desipramine in SK-N-SH cells; format: cell-based; design: endogenous in cells; host or cells: SK-N-SH
T2 sequence (P23975 whole entry): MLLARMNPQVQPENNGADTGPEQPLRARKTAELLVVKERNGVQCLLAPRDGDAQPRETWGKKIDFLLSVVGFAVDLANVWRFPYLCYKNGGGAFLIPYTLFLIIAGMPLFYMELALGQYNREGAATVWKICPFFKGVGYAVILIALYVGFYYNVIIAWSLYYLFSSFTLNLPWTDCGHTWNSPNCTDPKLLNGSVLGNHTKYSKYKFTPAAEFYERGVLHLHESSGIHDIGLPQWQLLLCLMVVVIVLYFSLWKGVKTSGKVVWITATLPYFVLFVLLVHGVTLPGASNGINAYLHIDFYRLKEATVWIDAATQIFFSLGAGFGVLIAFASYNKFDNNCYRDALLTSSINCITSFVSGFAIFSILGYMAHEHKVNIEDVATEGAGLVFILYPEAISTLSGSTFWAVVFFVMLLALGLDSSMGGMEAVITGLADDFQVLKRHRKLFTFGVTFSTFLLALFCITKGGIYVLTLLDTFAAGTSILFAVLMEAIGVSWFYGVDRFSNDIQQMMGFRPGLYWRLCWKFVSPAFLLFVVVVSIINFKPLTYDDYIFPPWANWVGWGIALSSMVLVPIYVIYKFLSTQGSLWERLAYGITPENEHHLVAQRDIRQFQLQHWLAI
Description: as §2

[5] = target: T2, NET; assay: NET mediated uptake kinetics in SK-N-SH cells; format: cell-based; design: endogenous in cells; host or cells: SK-N-SH
Description: as §2

[6] = target: T3, norepinephrine transporter (NET) (Homo sapiens, UniProt P23975); assay: Uptake and uptake kinetics in SH-SY5Y human neuroblastoma cells; format: cell-based; settings: SH-SY5Y cells
T3 construct: endogenous in cells; host or cells: SH-SY5Y
T3 sequence (P23975 whole entry): as above
Description: (§3) Imaging agent-1 was designed as a substrate for the norepinephrine transporter (NET) to image the cardiac sympathetic nervous system. […] These values were similar to that of MIBG (2.12±0.26 μM and 4.76±0.78 pmol/min/million cells). In animals, tissue biodistribution of imaging agent-1 was assessed by tissue sampling at 15- and 60-minute following administration. Heart uptake was 2.36±0.16 and 2.17±0.12% injected dose per g tissue (% ID/g) in rats and 0.25±0.03 and 0.28±0.03% ID/g in rabbits. In rabbits, desipramine (1 mg/kg) inhibited heart uptake of imaging agent-1 by 68% and ^123I-MIBG uptake by 55% at 1 hour post dose.

[7] = Solubility of salt forms in acetonitrile; format: physicochemical; settings: organic solvent or mixture, read-out: Solubility (Acetonitrile; mg/mL)
Text: as §1

[8] = target: T2, NET; assay: Effect of heart failure medications on NET mediated imaging agent-1 uptake in SK-N-SH cells; format: cell-based; design: endogenous in cells; host or cells: SK-N-SH; settings: even at the highest concentrations tested (1000 μM)
[9] = Dofetilide induced ECG changes (arrhythmia susceptibility) in RCSD rabbits; format: in vivo; settings: RCSD versus control
Description: (§4) Rabbit models of RCSD were developed by applying phenol directly on the surface of the left ventricular wall during a sternotomy. Two and twelve weeks following the procedure, imaging agent-1 cardiac PET imaging (˜1.5 mCi, iv) were performed in these rabbits. The myocardial area with radioactivity ≥50% maximum was quantified as innervated region for comparison. To evaluate susceptibility of arrhythmia in rabbits, dofetilide (10 and 40 μg/kg iv, a delayed IKr inhibitor) induced changes were assessed by measuring ECG including heart rate (HR), QTc interval (corrected by Fridericia method), and frequency of arrhythmia.

[10] = target: T4, norepinephrine transporter (NET), uptake 1 (Oryctolagus cuniculus, UniProt G1TDF9); assay: Heart uptake in rabbits after uptake 1 blockade (desipramine) or 6-hydroxydopamine sympathetic denervation; format: in vivo; settings: rabbits, desipramine 1 mg/kg, 1 hour post dose
T4 construct: from tissue; host or cells: rabbit heart, in vivo
T4 sequence (G1TDF9 1-617): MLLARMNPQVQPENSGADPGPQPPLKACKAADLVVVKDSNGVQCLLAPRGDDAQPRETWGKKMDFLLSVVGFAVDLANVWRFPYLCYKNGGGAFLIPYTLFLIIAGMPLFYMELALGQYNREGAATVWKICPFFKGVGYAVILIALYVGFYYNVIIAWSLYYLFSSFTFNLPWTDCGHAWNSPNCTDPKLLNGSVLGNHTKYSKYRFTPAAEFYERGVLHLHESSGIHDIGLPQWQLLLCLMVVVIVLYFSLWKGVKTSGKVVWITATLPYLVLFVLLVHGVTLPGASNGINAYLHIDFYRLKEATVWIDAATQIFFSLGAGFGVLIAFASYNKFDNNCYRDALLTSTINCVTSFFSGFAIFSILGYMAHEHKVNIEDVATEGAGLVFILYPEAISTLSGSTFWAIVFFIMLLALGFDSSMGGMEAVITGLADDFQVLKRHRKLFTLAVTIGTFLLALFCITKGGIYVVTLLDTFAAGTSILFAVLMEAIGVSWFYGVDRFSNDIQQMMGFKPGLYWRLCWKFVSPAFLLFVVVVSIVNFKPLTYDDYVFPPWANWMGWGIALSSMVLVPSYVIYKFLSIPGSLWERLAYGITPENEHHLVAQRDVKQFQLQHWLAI
Description: as §3
(§5) Desipramine, a selective uptake 1 inhibitor, was used to block cardiac uptake 1 in rats (10 mg/kg, ip), rabbits (1 mg/kg iv), and NHPs (0.5 mg/kg, iv). 6-hydroxydopamine, a neurotoxin, was injected to induce sympathetic denervation in rats (100 mg/kg ip for 7 days) and rabbits (25 mg/kg iv on day 1, 2, 7, and 8). Imaging agent-1 heart uptake in comparison with MIBG was assessed by tissue sampling at 60 minutes post imaging agent injection. Imaging was also performed with (2-tert-butyl-4-chloro-5-[4-(2-[^18F]fluoroethoxymethyl)-benzyloxy]-2H-pyridazin-3-1.

[11] = Heart uptake by tissue sampling in Dahl Salt Sensitive (DSS) rats, a model of heart failure; format: in vivo
Description: The prognostic value of imaging agent-1 was evaluated in Dahl Salt Sensitive (DSS) rats, a rat model of heart failure (HF), and compared with ^123I-meta-iodobenzylguanidine (^123I-MIBG). DSS rats were fed either a low salt (0.1% as control) or high salt diet (8%) for 5 or 9 weeks. To determine the progression of HF in these rats, plasma norepinephrine levels, and heart and lung weights were measured. Compared to low salt diet groups, DSS rats fed a high salt diet for 5 weeks had marked increases in norepinephrine levels (258±28 vs. 1242±184 pg/mL) and heart to body weight ratio (3.3±0.1 vs. 4.5±0.3 mg/g). By 9 weeks, the norepinephrine levels (656±219 vs. 1508±165 pg/mL) and heart to body weight ratio (3.2±0.1 vs. 6.1±0.3 mg/g) had increased further and the lung to body weight ratio had become elevated (3.9±0.1 vs. 14.0±1.4 mg/g). […] Imaging agent-1 and MIBG heart uptake was examined in early and late stage HF rats by tissue sampling after intravenous administration. The uptake was measured using a gamma counter and expressed as differential absorption ratio (DAR). The imaging agent-1 heart uptake decreased following progression of HF from early to late stage HF (low salt group vs. high salt group: 6.9±0.6 vs. 5.1±0.6 and 8.1±0.2 vs. 3.1±0.2 DAR at 5 and 9 weeks respectively).

[12] = Stability of salt forms to GVS and 40° C./75% RH; format: physicochemical; settings: salt form of imaging agent precursor-1
Text: as §1

[13] = system: norepinephrine transporter (NET), uptake 1; assay: Heart uptake in rabbits after uptake 1 blockade (desipramine) or 6-hydroxydopamine sympathetic denervation; format: in vivo; settings: denervated rabbits and uptake 1 blocked rabbits and NHPs
Description: as §3, §5

[14] = system: norepinephrine transporter (NET), uptake 1; assay: Heart uptake in rats after uptake 1 blockade (desipramine) or 6-hydroxydopamine sympathetic denervation; format: in vivo; settings: sympathetic denervated rats
Description: as §5

[15] = Cardiac PET imaging in rabbit models of regional and systemic cardiac sympathetic denervation (CSD); format: in vivo, rabbits; settings: rabbits
Description: Rabbit models of regional and systemic CSD were used. To develop regional CSD, a median sternotomy was performed and phenol (89% in liquid) was pained on the anterior and posterior walls of the left ventricle. To develop systemic denervation the neurotoxin, 6-hydroxydopamine (25 mg/kg on day 1, 2, 7 and 8), was administered intravenously. Two weeks following these procedures, rabbits were imaged with imaging agent-1 (˜1.5 mCi, i.v.) using a microPET camera for 30 minutes.

[16] = Cardiac PET imaging in rabbit model of regional cardiac sympathetic denervation (RCSD) and re-innervation; format: in vivo, rabbits; settings: all rabbits including those with RCSD regions
Description: as §4

SMILES: N=C(N)NCc1ccc(OCCCOS(=O)(=O)c2ccc(Br)cc2)c(Br)c1 [Sulfate, 3-(2-Bromo-4-(guanidinomethyl)phenoxy)propyl 4-bromobenzenesulfonate, sulfuric acid salt]
Hygroscopicity [1]: Hygroscopic | Thermal stability, First event at [2]: 103 °C

SMILES: NC[C@H](O)c1ccc(O)c(O)c1 [NE, norepinephrine, reference compound]
Inhibition of cell uptake by blockade of NET (desipramine) [3]: 93±1% | Inhibition of cell uptake by blockade of NET (desipramine) [4]: 97±1% | Vmax (NET mediated uptake) [5]: 6.2±0.7 pMol/million cells/min

SMILES: N=C(N)NCc1cccc(I)c1 [MIBG, ^123I-meta-iodobenzylguanidine]
Km [6]: 2.12 ± 0.26 µM

SMILES: N=C(N)NCc1ccc(OCCCOS(=O)(=O)c2ccc(Br)cc2)c(Br)c1.O=C(O)c1ccccc1 [Benzoate, 3-(2-Bromo-4-(guanidinomethyl)phenoxy)propyl 4-bromobenzenesulfonate, benzoic acid salt]
solubility [7]: 1.5 mg/mL

SMILES: CC(=O)O.N=C(N)NCc1ccc(OCCCOS(=O)(=O)c2ccc(Br)cc2)c(Br)c1 [Acetate, 3-(2-Bromo-4-(guanidinomethyl)phenoxy)propyl 4-bromobenzenesulfonate, acetic acid salt]
solubility [7]: 0.4 mg/mL

Effect on imaging agent-1 uptake [8]: no effect
SMILES: C[C@H](CS)C(=O)N1CCC[C@H]1C(=O)O [captopril]

SMILES: CN(CCOc1ccc(NS(C)(=O)=O)cc1)CCc1ccc(NS(C)(=O)=O)cc1 [Dofetilide, dofetilide]
Induced QTc prolongation, frequency of premature ventricular contraction, and torsades de pointes ([9]; 10 and 40 μg/kg iv): more prominent in the RCSD group than in control | Induced changes in HR [9]: comparable in the two groups

SMILES: N=C(N)NCc1cccc([123I])c1 [MIBG, ^123I-meta-iodobenzylguanidine]
Vmax (uptake kinetics) [6]: 4.76±0.78 pmol/min/million cells | Inhibition of heart uptake by desipramine (uptake 1 blockade) [10]: 55% | Heart uptake, differential absorption ratio (DAR) ([11]; high salt group, 5 weeks (early stage HF)): 3.8±0.5 DAR | Heart uptake, differential absorption ratio (DAR) ([11]; high salt group, 9 weeks (late stage HF)): 2.3±0.3 DAR | Heart uptake, differential absorption ratio (DAR) ([11]; low salt group, 5 weeks): 7.3±0.1 DAR | Heart uptake, differential absorption ratio (DAR) ([11]; low salt group, 9 weeks): 7.9±0.5 DAR

SMILES: N=C(N)NCc1ccc(OCCCOS(=O)(=O)c2ccc(Br)cc2)c(Br)c1.O=C(O)C(F)(F)F [Trifluoroacetate, 3-(2-Bromo-4-(guanidinomethyl)phenoxy)propyl 4-bromobenzenesulfonate, trifluoroacetate salt]
Hygroscopicity [1]: Slight | Stability to GVS and 40° C./75% RH [12]: Stable | Thermal stability, First event at [2]: 142 °C | solubility [7]: 4.68 mg/mL

SMILES: CC(C)(C)n1ncc(OCc2ccc(COCC[18F])cc2)c(Cl)c1=O [(2-tert-butyl-4-chloro-5-[4-(2-[^18F]fluoroethoxymethyl)-benzyloxy]-2H-pyridazin-3-1, reference compound]
Cardiac imaging, myocardial activity [13]: marked activity reduction | Cardiac imaging, myocardial activity versus control [14]: comparable myocardial activity | Cardiac perfusion imaging, control versus denervated rabbits [15]: no differences were observed | Perfusion imaging, myocardial distribution [16]: homogeneous myocardial distribution

SMILES: N=C(N)NCc1ccc(OCCCOS(=O)(=O)c2ccc(Br)cc2)c(Br)c1 [Phosphate, 3-(2-Bromo-4-(guanidinomethyl)phenoxy)propyl 4-bromobenzenesulfonate, phosphoric acid salt]
Hygroscopicity [1]: Slight | Stability to GVS and 40° C./75% RH [12]: Stable | Thermal stability, First event at [2]: 155 °C | solubility [7]: 0.3 mg/mL

SMILES: CS(=O)(=O)O.N=C(N)NCc1ccc(OCCCOS(=O)(=O)c2ccc(Br)cc2)c(Br)c1 [Mesylate, 3-(2-Bromo-4-(guanidinomethyl)phenoxy)propyl 4-bromobenzenesulfonate, methanesulfonic acid salt]
Hygroscopicity [1]: Slight | Stability to GVS and 40° C./75% RH [12]: Stable | Thermal stability, First event at [2]: 152 °C | solubility [7]: 1.28 mg/mL

Effect on imaging agent-1 uptake [8]: no effect
SMILES: CCCCc1nc(Cl)c(CO)n1Cc1ccc(-c2ccccc2-c2nn[nH]n2)cc1 [Losartan, losartan]

SMILES: Cl.N=C(N)NCc1ccc(OCCCOS(=O)(=O)c2ccc(Br)cc2)c(Br)c1 [Hydrochloride, 3-(2-Bromo-4-(guanidinomethyl)phenoxy)propyl 4-bromobenzenesulfonate, hydrochloric acid salt]
Hygroscopicity [1]: Indicates hydrate | Stability to GVS and 40° C./75% RH [12]: Stable | Thermal stability, First event at [2]: 117 °C
